Measurements reported in US11173146B2, “Selective activators of the intermediate conductance CA2+activated K+ channel KCa3.1 and their methods of use” (The Regents of the University of California, priority 2014, dated 2021).
Where “and” joins values, the source holds several entries; their conditions need not be identical. Equal entries are not always repeated. Where two headings read alike, the source gives them in different places.

Assays:
KCa3.1 = KCa3.1 (Homo sapiens, UniProt O15554+P0DP23); assay: Whole-cell patch-clamp KCa3.1 activation (QPatch, HEK-293); assay type: cell-based; design: host or cells: HEK-293
Text: Cells, Cell lines and Clones. […] The cloning of hKCa2.3 (19 CAG repeats) and hKCa3.1 has been previously described (Wulff et al., 2000). The hKCa2.3 clone was later stably expressed in COS-7 cells at Aurora Biosciences Corp., San Diego, Calif. Cell lines stably expressing other mammalian ion channels were gifts from several sources: hKCa1.1 in HEK-293 cells (Andrew Tinker, University College London); hKV2.1 in HEK293 cells (James Trimmer, UC Davis); KV11.1 (HERG) in HEK-293 cells (Craig January, University of Wisconsin, Madison); hNaV1.4 in HEK-293 cells (Frank Lehmann-Horn, University of Ulm, Germany), hNaV1.5 in HEK-293 cells (Christopher Lossin, University of California Davis), and hCaV1.2 in HEK-293 cells (Franz Hofmann, Munich, Germany).
Electrophysiology. Experiments were conducted either manually with an EPC-10 amplifier (HEKA, Lambrecht/Pfalz, Germany) or on a QPatch-16 automated electrophysiology platform (Sophion Biosciences, Denmark). […] Patch pipettes were pulled from soda lime glass (micro-hematocrit tubes, Kimble Chase, Rochester, N.Y.) and had resistances of 2-3 MΩ. […] Free Ca^2+ concentrations were calculated with MaxChelator assuming a temperature of 25° C., a pH of 7.2 and an ionic strength of 160 mM. […] Na^+ aspartate Ringer was used as an external solution (in mM): 160 Na^+ aspartate, 4.5 KCl, 2 CaCl2, 1 MgCl2, 5 HEPES, pH 7.4, 290-310 mOsm. […] Reduction of both peak and tail current by the drug was determined. NaV1.7 currents were recorded with 30 ms pulses from −90 mV to −10 mV every 10 sec with a CsF-based pipette solution and normal Ringer as an external solution. CaV1.2 currents were elicited by 100-ms depolarizing pulses from −80 to 20 mV every 10 sec with a CsCl-based pipette solution and an external solution containing 30 mM BaCl2. Blockade of both Na^+ and Ca^2+ currents was determined as reduction of the current minimum.
For automated electrophysiology experiments cells were grown to ˜70% confluency, rinsed in sterile PBS containing 0.02% EDTA, and lifted with 2 mL of TrypLE™ Express (Gibco, Grand Island, N.Y.) for ˜2 min. When cells were rounded but not detached, they were dislodged by gentle tapping, suspended in DMEM, centrifuged and resuspended in 1 ml of external solution, placed into the Qfuge tube and resuspended in 150-200 μL extracellular solution after one additional spin on the QPatch. Whole-cell patch-clamp experiments were then carried out using disposable 16-channel planar patch chip plates (QPlates; patch hole diameter approximately 1 μm, resistance 2.00±0.02 MΩ). […] In order to avoid rejection of cells with large KCa3.1 currents the minimum seal resistance for whole-cell requirement was lowered to 0.001 GΩ. […] Following establishment of the whole-cell configuration, cells were held at −80 mV and KCa3.1, KCa2.1 or KCa2.2 currents elicited by a voltage protocol that held at −80 mV for 20 ms, stepped to −120 mV for 20 ms, ramped from −120 to 40 mV in 200 ms and then stepped back to −120 mV for 20 ms. This pulse protocol was applied every 10 s. […] NaV1.2 currents from N1E-115 cells, NaV1.4 and NaV1.5 currents from stably transfected HEK cells were recorded with 20 ms pulses from −90 mV to 0 mV every 10 sec with a KF-based internal solution and normal Ringer as an external solution. Current slopes (in ampere per sec) were measured using the SophionQPatch software and exported to Microsoft Excel and Origin 7.0 (OriginLab Corp. MA) for analysis. […] Data fitting to the Hill equation to obtain EC50 and IC50 values was performed with Origin 7.0. Data are expressed as mean±SD.

rKCa2.2 = rKCa2.2 (UniProt P0DP23+P70604); assay: Whole-cell patch-clamp KCa2.2 activation (HEK-293)
Description: Electrophysiology. Experiments were conducted either manually with an EPC-10 amplifier (HEKA, Lambrecht/Pfalz, Germany) or on a QPatch-16 automated electrophysiology platform (Sophion Biosciences, Denmark). […] Patch pipettes were pulled from soda lime glass (micro-hematocrit tubes, Kimble Chase, Rochester, N.Y.) and had resistances of 2-3 MΩ. […] Free Ca^2+ concentrations were calculated with MaxChelator assuming a temperature of 25° C., a pH of 7.2 and an ionic strength of 160 mM. […] Na^+ aspartate Ringer was used as an external solution (in mM): 160 Na^+ aspartate, 4.5 KCl, 2 CaCl2, 1 MgCl2, 5 HEPES, pH 7.4, 290-310 mOsm. Both KCa2 and KCa3.1 currents were elicited by 200-ms voltage ramps from −120 mV to 40 mV applied every 10 sec and the fold-increase of slope conductance at −80 mV by drug taken as a measure of channel activation.
For automated electrophysiology experiments cells were grown to ˜70% confluency, rinsed in sterile PBS containing 0.02% EDTA, and lifted with 2 mL of TrypLE™ Express (Gibco, Grand Island, N.Y.) for ˜2 min. […] Current slopes (in ampere per sec) were measured using the SophionQPatch software and exported to Microsoft Excel and Origin 7.0 (OriginLab Corp. MA) for analysis.

Cc1cc2nc(N)oc2c2ccccc12 [SKA-121, 5-Methylnaphtho[2,1-d]oxazol-2-amine]
maximal KCa3.1 current increase (KCa3.1; 250 nM free Ca2+): roughly 30 fold | EC50 (KCa3.1; 250 nM free Ca2+, read-out: EC50 for KCa3.1 activation): 0.109 µM and 0.111 µM and ~0.11 µM | EC50 (KCa3.1; Appendix A, read-out: KCa3.1 EC50 (converted)): 0.2 µM | Hill coefficient nH, KCa3.1 concentration-response curve (KCa3.1; FIG. 4 legend): 3.0 | selectivity for KCa3.1 over the three KCa2 channels (KCa3.1; KCa2.1, KCa2.2 and KCa2.3): 40-80 fold | EC50 (KCa3.1; Table 1, 250 nM free Ca2+, read-out: KCa3.1 EC50 (converted)): 0.109 µM | selectivity for KCa3.1 over KCa2.3 (KCa3.1; ratio of EC50 values): ~40 fold | EC50 (rKCa2.2): 6.8 ± 2.2 µM | Hill coefficient nH, KCa2.2 concentration-response curve (rKCa2.2; FIG. 4 legend): 1.7
